Data from ChEMBL document CHEMBL5252544, “Synthesis and evaluation of biological activities of vibsanin A analogs” (Bioorg Med Chem Lett, 2017).
Calls of active or inactive are those of the source. No cut-off for these calls is given here.

What was measured:
[1] = biological target: T1, Protein kinase C (PKC) (Homo sapiens) (UniProt O94806+P41743+P17252+P05129+Q05655+P05771+Q05513+Q02156+P24723+Q15139+Q04759); experiment: Activation of PKC in human THP-1 cells assessed as increase in ERK phosphorylation at 0.1 to 10 uM incubated for 15 mins by immunoblotting analysis; type: cell-based; settings: dose 0.1-10 µM
THP-1 [2] = experiment: Cytotoxicity against human THP-1 cells by trypan blue staining based microscopic analysis; type: functional, cell-based
THP-1 [3] = experiment: Induction of cell differentiation in human THP-1 cells; type: functional, cell-based
[4] = biological target: T1, Protein kinase C (PKC) (Homo sapiens); experiment: Activation of PKC in human THP-1 cells assessed as increase in ERK phosphorylation at 100 nM incubated for 15 mins by immunoblotting analysis; type: cell-based; settings: filed as activator
[5] = biological target: T1, Protein kinase C (PKC) (Homo sapiens); experiment: Activation of PKC in human THP-1 cells assessed as increase in ERK phosphorylation at 10 uM pretreated with PMA for 24 hrs followed by compound addition and measured after 15 mins by immunoblotting analysis; type: cell-based
THP-1 [6] = experiment: Induction of monocytic differentiation in human THP-1 cells assessed as decrease in nuclear to cytoplasmic ratio at 10 uM measured after 72 hrs by giemsa staining based microscopic analysis; type: functional, cell-based
[7] = biological target: T1, Protein kinase C (PKC) (Homo sapiens); experiment: Activation of PKC in human THP-1 cells assessed as increase in ERK phosphorylation incubated for 15 mins by immunoblotting analysis; type: cell-based; settings: filed as activator, dose 0.1-10 µM
HL-60 = experiment: Activation of ERK in human HL-60 cells assessed as increase in cell differentiation; type: cell-based; settings: filed as activator
THP-1 [8] = experiment: Induction of morphological changes in human THP-1 cells assessed as loss of cell circularity at 10 uM measured after 72 hrs by microscopic analysis; type: functional, cell-based
THP-1 [9] = experiment: Induction of monocytic differentiation in human THP-1 cells assessed as increase in cell size at 10 uM measured after 72 hrs by giemsa staining based microscopic analysis; type: functional
THP-1 [10] = experiment: Induction of monocytic differentiation in human THP-1 cells assessed as high vacuolated cytoplasm at 10 uM measured after 72 hrs by giemsa staining based microscopic analysis; type: functional, cell-based

Compound | Activity [1] | Activity (THP-1 [6]) | Activity [7] | Activity (HL-60) | Activity (THP-1 [9]) | Activity (THP-1 [10]) | further results
C=C1CC[C@H]2O[C@@]2(C)[C@H](OC(=O)C=C(C)C)/C=C/[C@@](C)(CCC=C(C)C)CC1=O | inactive | – | – | – | – | – | Activity (THP-1 [2]): Active; Activity (THP-1 [3]): inactive
CCCCCCCCCCCCCC(=O)O[C@@H]1[C@@H](C)[C@@]2(O)[C@@H](C=C(CO)C[C@]3(O)C(=O)C(C)=C[C@@H]23)[C@@H]2C(C)(C)[C@]12OC(C)=O | – | – | – | – | – | – | Activity [4]: Active
CC(C)=CCC[C@]1(C)/C=C/[C@@H](OC(=O)C=C(C)C)[C@]2(C)O[C@@H]2CC/C(C=O)=C\C1 | – | Active | Dose-Dependent Effect | Active | Active | Active | Activity [5]: inactive; Activity (THP-1 [8]): Active
C=C(I)CC[C@H]1O[C@@]1(C)[C@@H](/C=C/[C@](C)(CC=O)CCC=C(C)C)OC(=O)C=C(C)C | inactive | – | – | – | – | – | –
C=C1CC[C@H]2O[C@@]2(C)[C@H](OC(=O)C=C(C)C)/C=C/[C@@](C)(CCC=C(C)C)C[C@H]1O | inactive | – | – | – | – | – | –
CC(C)=CCC[C@]1(C)/C=C/[C@@H](OC(=O)C=C(C)C)[C@]2(C)O[C@@H]2CC/C(CO)=C\C1 | – | Active | Dose-Dependent Effect | Active | Active | Active | –
